Assay results reported in patent publication US20060069132A1, “Azolecarboxamide herbicides” (priority 2004, published 2006).

Assays:
large crabgrass = assay: Test B pre-/postemergence herbicide test; format: in vivo, Digitaria sanguinalis; settings: for Crabgrass, Large plant response rating (0 to 100 scale) / Plant response rating, Crabgrass, Large: preemergence; for Crabgrass, Large plant response rating: postemergence, scale 0 (no effect) to 100 (complete control)
In short: (§1)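 Herbicidal effect was judged by eye on a 0–100 scale after plants stood 13 to 15 days in the greenhouse following pre- or postemergence treatment with surfactant-containing formulations.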

rice [1] = assay: Test B pre-/postemergence herbicide test; format: in vivo, Oryza sativa; settings: preemergence; for Rice plant response rating (0 to 100 scale): 125 g ai/ha; for Plant response rating, Rice: 500 g ai/ha
Text: Seeds selected from barnyardgrass (Echinochloa crus-galli (L.) Beauv.), Surinam grass (Urochloa decumbens (Staph) R. D. Webster, previously named Brachiaria decumbens Stapf), cocklebur (Xanthium strumarium L.), corn (Zea mays L.), large crabgrass (Digitaria sanguinalis (L.) Scop.), giant foxtail (Setaria faberi Herim.), lambsquarters (Chenopodium album L.), morningglory (Ipomoea coccinea L.), pigweed (Amaranthus retroflexus L.), rice (Oryza sativa L.) and velvetleaf (Abutilon theophrasti Medik.) were planted and treated preemergence with test chemicals formulated in a non-phytotoxic solvent mixture which included a surfactant.
At the same time, plants selected from these crop and weed species and also blackgrass (Alopecurus myosuroides Huds.), wheat (Triticum aestivum L.) and wild oat (Avena fatua L.) were treated with postemergence applications of test chemicals formulated in the same manner. Plants ranged in height from 2 to 18 cm (1- to 4-leaf stage) for postemergence treatments. Plant species in the flooded paddy test consisted of rice (Oryza sativa L.), small flower umbrella sedge (Cyperus difformis L.), ducksalad (Heteranthera limosa (Sw.) Willd.) and barnyardgrass (Echinochloa crus-galli (L.) Beauv.) grown to the 2-leaf stage for testing. Treated plants and controls were maintained in a greenhouse for 13 to 15 days, after which time all species were compared to controls and visually evaluated. Plant response ratings, summarized in Table B, are based on a scale of 0 to 100 where 0 is no effect and 100 is complete control. A dash (-) response means no test result.

wheat = assay: Test B postemergence herbicide test; format: in vivo, Triticum aestivum; set-up: key to Wheat plant response rating: 0 = no effect, 100 = complete control; settings: postemergence, visual rating, scale 0 (no effect) to 100 (complete control)
In short: (§2)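 Plants grow to 1- to 4-leaf stage (2–18 cm) for postemergence spraying, or to 2-leaf stage for the paddy test. Formulated compound is applied. Greenhouse holding lasts 13–15 days. Response is scored visually relative to controls, 0 no effect to 100 complete control; a dash means no result.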

morningglory = assay: Test B pre-/postemergence herbicide test; format: in vivo, Ipomoea coccinea; settings: for Morningglory plant response rating: postemergence, scale 0 (no effect) to 100 (complete control)
In short: (§3)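 Visual rating, 0 (no effect) to 100 (complete control), versus untreated controls after 13–15 d in greenhouse. Pre- and postemergence applications (postemergence plants 2–18 cm, 1–4 leaves); flooded paddy arm at 2-leaf stage. Compounds in non-phytotoxic solvent plus surfactant.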

wild oat = assay: Test B postemergence herbicide test; format: in vivo, Avena fatua; settings: postemergence, visual rating, scale 0 (no effect) to 100 (complete control)
In short: as §2

velvetleaf = assay: Test B pre-/postemergence herbicide test; format: in vivo, Abutilon theophrasti; settings: for Velvetleaf plant response rating (0 to 100 scale) / Plant response rating, Velvetleaf: preemergence; for Velvetleaf plant response rating: postemergence, scale 0 (no effect) to 100 (complete control)
In short: as §1

rice [2] = assay: Test B flooded paddy test; format: in vivo, Oryza sativa; settings: 1000 g ai/ha, scale 0 to 100 (0 no effect, 100 complete control)
In short: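 Treated at 2-leaf (paddy) or 1–4-leaf, 2–18 cm (postemergence); greenhouse 13–15 d; visual score vs control, 0 none to 100 complete control; dash = not tested.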

[3] = tested on: small flower umbrella sedge; assay: Test B flooded paddy test; format: in vivo, Cyperus difformis; settings: 1000 g ai/ha, scale 0 to 100 (0 no effect, 100 complete control)
In short: (§4)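 Visual ratings, 0 (no effect) to 100 (complete control), made versus controls after 13–15 d greenhouse. Paddy plants treated at 2-leaf stage; postemergence plants at 1- to 4-leaf stage, 2–18 cm tall.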

pigweed = assay: Test B pre-/postemergence herbicide test; format: in vivo, Amaranthus retroflexus; settings: for Pigweed plant response rating (0 to 100 scale) / Plant response rating, Pigweed: preemergence; for Pigweed plant response rating: postemergence, scale 0 (no effect) to 100 (complete control)
In short: as §1

barnyardgrass [4] = assay: Test B pre-/postemergence herbicide test; format: in vivo, Echinochloa crus-galli; settings: for Barnyardgrass plant response rating (0 to 100 scale) / Plant response rating, Barnyardgrass: preemergence; for Barnyardgrass plant response rating: postemergence, scale 0 (no effect) to 100 (complete control)
In short: as §3

corn = assay: Test B pre-/postemergence herbicide test; format: in vivo, Zea mays; settings: for Corn plant response rating (0 to 100 scale) / Plant response rating, Corn: preemergence; for Corn plant response rating: postemergence, scale 0 (no effect) to 100 (complete control)
In short: as §1

ducksalad = assay: Test B flooded paddy test; format: in vivo, Heteranthera limosa; settings: 1000 g ai/ha, scale 0 to 100 (0 no effect, 100 complete control)
In short: as §4

lambsquarters = assay: Test B pre-/postemergence herbicide test; format: in vivo, Chenopodium album; settings: for Lambsquarters plant response rating (0 to 100 scale) / Plant response rating, Lambsquarters: preemergence; for Lambsquarters plant response rating: postemergence, scale 0 (no effect) to 100 (complete control)
In short: as §1

blackgrass = assay: Test B postemergence herbicide test; format: in vivo, Alopecurus myosuroides; settings: postemergence, visual rating, scale 0 (no effect) to 100 (complete control)
In short: as §4

barnyardgrass [5] = assay: Test B flooded paddy test; format: in vivo, Echinochloa crus-galli; settings: 1000 g ai/ha, scale 0 to 100 (0 no effect, 100 complete control)
In short: as §4

giant foxtail = assay: Test B pre-/postemergence herbicide test; format: in vivo, Setaria faberi; settings: for Foxtail, Giant plant response rating: postemergence, scale 0 (no effect) to 100 (complete control)
In short: as §1

cocklebur = assay: Test B pre-/postemergence herbicide test; format: in vivo, Xanthium strumarium; settings: for Cocklebur plant response rating (0 to 100 scale) / Plant response rating, Cocklebur: preemergence; for Cocklebur plant response rating: postemergence, scale 0 (no effect) to 100 (complete control)
In short: as §3

Surinam grass = assay: Test B pre-/postemergence herbicide test; format: in vivo, Urochloa decumbens; settings: for Surinam Grass plant response rating: postemergence, scale 0 (no effect) to 100 (complete control)
In short: as §1

[6] = 125 g ai/ha, 0 = no effect, 100 = complete control
[7] = 500 g ai/ha, visual rating 0-100, 0 no effect, 100 complete control
[8] = 0 = no effect, 100 = complete control
[9] = 125 g ai/ha, 0 = no effect, 100 = complete control, preemergence
[10] = 500 g ai/ha, visual rating 0-100, 0 no effect, 100 complete control, preemergence
[11] = 500 g ai/ha, visual rating, 0 = no effect, 100 = complete control
[12] = 500 g ai/ha, visual rating, 0 = no effect, 100 = complete control, preemergence

Compound: CC(=NO)c1cccc(NC(=O)c2nn(C(C)(C)C)cc2C(F)(F)F)c1 [Compound 171]
- Crabgrass, Large plant response rating (0 to 100 scale) (large crabgrass; [6]): 0
- Plant response rating, Crabgrass, Large (large crabgrass; [7]): 30
- Crabgrass, Large plant response rating (large crabgrass; 125 g ai/ha, visual rating): 0
- Crabgrass, Large plant response rating (large crabgrass; 500 g ai/ha, visual rating): 10
- Rice plant response rating (0 to 100 scale) (rice [1]; [8]): 0
- Plant response rating, Rice (rice [1]; visual rating 0-100, 0 no effect, 100 complete control): 0
- Wheat plant response rating (wheat; 125 g ai/ha): 0
- Wheat plant response rating (wheat; 500 g ai/ha): 0
- Morningglory plant response rating (0 to 100 scale) (morningglory; [9]): 0
- Morningglory plant response rating (morningglory; 125 g ai/ha, visual rating): 0
- Morningglory plant response rating (morningglory; 500 g ai/ha, visual rating): 0
- Oat, Wild plant response rating (wild oat; 125 g ai/ha): 0
- Oat, Wild plant response rating (wild oat; 500 g ai/ha): 0
- Velvetleaf plant response rating (0 to 100 scale) (velvetleaf; [6]): 0
- Plant response rating, Velvetleaf (velvetleaf; [7]): 20
- Velvetleaf plant response rating (velvetleaf; 125 g ai/ha, visual rating): 0
- Velvetleaf plant response rating (velvetleaf; 500 g ai/ha, visual rating): 0
- Rice plant response rating (rice [2]; visual rating, 13 to 15 days): 0
- Sedge, Umbrella plant response rating ([3]; visual rating, 13 to 15 days): 0
- Pigweed plant response rating (0 to 100 scale) (pigweed; [6]): 0
- Plant response rating, Pigweed (pigweed; [7]): 0
- Pigweed plant response rating (pigweed; 125 g ai/ha, visual rating): 10
- Pigweed plant response rating (pigweed; 500 g ai/ha, visual rating): 20
- Barnyardgrass plant response rating (0 to 100 scale) (barnyardgrass [4]; [6]): 0
- Plant response rating, Barnyardgrass (barnyardgrass [4]; [7]): 0
- Barnyardgrass plant response rating (barnyardgrass [4]; 125 g ai/ha, visual rating): 0
- Barnyardgrass plant response rating (barnyardgrass [4]; 500 g ai/ha, visual rating): 10
- Corn plant response rating (0 to 100 scale) (corn; [6]): 0
- Plant response rating, Corn (corn; [7]): 0
- Corn plant response rating (corn; 125 g ai/ha, visual rating): 0
- Corn plant response rating (corn; 500 g ai/ha, visual rating): 10
- Ducksalad plant response rating (ducksalad; visual rating, 13 to 15 days): 0
- Lambsquarters plant response rating (0 to 100 scale) (lambsquarters; [6]): 0
- Plant response rating, Lambsquarters (lambsquarters; [7]): 0
- Lambsquarters plant response rating (lambsquarters; 125 g ai/ha, visual rating): 10
- Lambsquarters plant response rating (lambsquarters; 500 g ai/ha, visual rating): 20
- Blackgrass plant response rating (blackgrass; 125 g ai/ha): 0
- Blackgrass plant response rating (blackgrass; 500 g ai/ha): 0
- Barnyardgrass plant response rating (barnyardgrass [5]; visual rating, 13 to 15 days): 0
- Plant response rating, Foxtail, Giant (giant foxtail; [10]): 0
- Foxtail, Giant plant response rating (giant foxtail; 125 g ai/ha, visual rating): 10
- Foxtail, Giant plant response rating (giant foxtail; 500 g ai/ha, visual rating): 20
- Cocklebur plant response rating (0 to 100 scale) (cocklebur; [6]): 0
- Plant response rating, Cocklebur (cocklebur; [7]): 0
- Cocklebur plant response rating (cocklebur; 125 g ai/ha, visual rating): 0
- Cocklebur plant response rating (cocklebur; 500 g ai/ha, visual rating): 0
- Plant response rating, Surinam Grass (Surinam grass; [10]): 0
- Surinam Grass plant response rating (Surinam grass; 125 g ai/ha, visual rating): 10
- Surinam Grass plant response rating (Surinam grass; 500 g ai/ha, visual rating): 10

Compound: CCNC(=O)c1ccnc(NC(=O)c2nn(C(C)(C)C)cc2CC)c1 [Compound 233]
- Crabgrass, Large plant response rating (0 to 100 scale) (large crabgrass; [6]): 20
- Plant response rating, Crabgrass, Large (large crabgrass; [11]): 90
- Crabgrass, Large plant response rating (large crabgrass; 125 g ai/ha, visual rating): 10
- Crabgrass, Large plant response rating (large crabgrass; 500 g ai/ha, visual rating): 10
- Rice plant response rating (0 to 100 scale) (rice [1]; [8]): 0
- Plant response rating, Rice (rice [1]; visual rating, 0 = no effect, 100 = complete control): 0
- Wheat plant response rating (wheat; 125 g ai/ha): 0
- Wheat plant response rating (wheat; 500 g ai/ha): 10
- Morningglory plant response rating (0 to 100 scale) (morningglory; [9]): 0
- Plant response rating, Morningglory (morningglory; [12]): 0
- Morningglory plant response rating (morningglory; 125 g ai/ha, visual rating): 50
- Morningglory plant response rating (morningglory; 500 g ai/ha, visual rating): 80
- Oat, Wild plant response rating (wild oat; 125 g ai/ha): 0
- Oat, Wild plant response rating (wild oat; 500 g ai/ha): 20
- Velvetleaf plant response rating (0 to 100 scale) (velvetleaf; [6]): 10
- Plant response rating, Velvetleaf (velvetleaf; [11]): 10
- Velvetleaf plant response rating (velvetleaf; 125 g ai/ha, visual rating): 30
- Velvetleaf plant response rating (velvetleaf; 500 g ai/ha, visual rating): 50
- Rice plant response rating (rice [2]): 30
- Sedge, Umbrella plant response rating [3]: 80
- Pigweed plant response rating (0 to 100 scale) (pigweed; [6]): 0
- Plant response rating, Pigweed (pigweed; [11]): 60
- Pigweed plant response rating (pigweed; 125 g ai/ha, visual rating): 60
- Pigweed plant response rating (pigweed; 500 g ai/ha, visual rating): 70
- Barnyardgrass plant response rating (0 to 100 scale) (barnyardgrass [4]; [6]): 10
- Plant response rating, Barnyardgrass (barnyardgrass [4]; [11]): 10
- Corn plant response rating (0 to 100 scale) (corn; [6]): 0
- Plant response rating, Corn (corn; [11]): 0
- Corn plant response rating (corn; 125 g ai/ha, visual rating): 10
- Corn plant response rating (corn; 500 g ai/ha, visual rating): 30
- Ducksalad plant response rating (ducksalad): 50
- Lambsquarters plant response rating (0 to 100 scale) (lambsquarters; [6]): 0
- Plant response rating, Lambsquarters (lambsquarters; [11]): 30
- Lambsquarters plant response rating (lambsquarters; 125 g ai/ha, visual rating): 50
- Lambsquarters plant response rating (lambsquarters; 500 g ai/ha, visual rating): 70
- Blackgrass plant response rating (blackgrass; 125 g ai/ha): 0
- Blackgrass plant response rating (blackgrass; 500 g ai/ha): 10
- Barnyardgrass plant response rating (barnyardgrass [5]): 0
- Foxtail, Giant plant response rating (0 to 100 scale) (giant foxtail; [9]): 0
- Plant response rating, Foxtail, Giant (giant foxtail; [12]): 0
- Foxtail, Giant plant response rating (giant foxtail; 125 g ai/ha, visual rating): 0
- Foxtail, Giant plant response rating (giant foxtail; 500 g ai/ha, visual rating): 30
- Cocklebur plant response rating (0 to 100 scale) (cocklebur; [6]): 0
- Plant response rating, Cocklebur (cocklebur; [11]): 0
- Cocklebur plant response rating (cocklebur; 125 g ai/ha, visual rating): 20
- Cocklebur plant response rating (cocklebur; 500 g ai/ha, visual rating): 20
- Surinam Grass plant response rating (0 to 100 scale) (Surinam grass; [9]): 0
- Plant response rating, Surinam Grass (Surinam grass; [12]): 20
- Surinam Grass plant response rating (Surinam grass; 125 g ai/ha, visual rating): 10
- Surinam Grass plant response rating (Surinam grass; 500 g ai/ha, visual rating): 20
